Experimental data: PubChem BioAssay (NCI)
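Assay format: 96-well plates, 48-hour exposure. TGI marks complete inhibition of growth.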

Key:
Assay in all cases: growth of human tumour cells (NCI), 48 h
[1] = tested on: OVCAR-3 ovarian
[2] = tested on: NCI/ADR-RES ovarian
[3] = tested on: MDA-MB-231 breast
[4] = tested on: CCRF-CEM leukemia
[5] = tested on: U251 CNS
[6] = tested on: SK-OV-3 ovarian
[7] = tested on: KM12 colon
[8] = tested on: LOX IMVI melanoma
[9] = tested on: T-47D breast
[10] = tested on: NCI-H23 lung
[11] = tested on: CAKI-1 renal
[12] = tested on: SK-MEL-2 melanoma
[13] = tested on: COLO 205 colon
[14] = tested on: RXF 393 renal
[15] = tested on: A498 renal
[16] = tested on: HS 578T breast
[17] = tested on: A549 NSCLC
[18] = tested on: 786-0 renal
[19] = tested on: SW-620 colon
[20] = tested on: HOP-62 NSCLC
[21] = tested on: SN12C renal
[22] = tested on: HCT-116 colon
[23] = tested on: UO-31 renal
[24] = tested on: SK-MEL-5 melanoma
[25] = tested on: NCI-H460 lung
[26] = tested on: HCC-2998 colon
[27] = tested on: MDA-N
[28] = tested on: HCT-15 colon
[29] = tested on: MDA-MB-435
[30] = tested on: SF-295 CNS
[31] = tested on: NCI-H522 lung
[32] = tested on: SNB-19 CNS
[33] = tested on: TK-10 renal
[34] = tested on: HT29 colon
[35] = tested on: IGROV1 ovarian
[36] = tested on: OVCAR-8 ovarian
[37] = tested on: MCF7 breast
[38] = tested on: HL-60(TB) leukemia
[39] = tested on: SF-539 CNS
[40] = tested on: DU-145 prostate
[41] = tested on: UACC-257 melanoma
[42] = tested on: OVCAR-5 ovarian
[43] = tested on: K-562 leukemia
[44] = tested on: RPMI-8226 leukemia
[45] = tested on: UACC-62 melanoma
[46] = tested on: SR leukemia
[47] = tested on: MOLT-4 leukemia
[48] = tested on: PC-3 prostate
[49] = tested on: SK-MEL-28 melanoma
[50] = tested on: MALME-3M melanoma
[51] = tested on: M14 melanoma
[52] = tested on: BT-549 breast
[53] = tested on: SF-268 CNS
[54] = tested on: ACHN renal
[55] = tested on: OVCAR-4 ovarian
[56] = tested on: EKVX NSCLC
[57] = tested on: SNB-75 CNS
[58] = tested on: NCI-H226 lung
[59] = tested on: HOP-92 NSCLC

## COC1=C(OC)C(=O)C(Cc2c(Cl)nc3n2CCS3)=C(C)C1=O
[1]
  TGI: 37.2 µM
[2]
  TGI: 34.2 µM
[3]
  TGI: 27.5 µM
[4]
  TGI: 8.98 µM
[5]
  TGI: 35.2 µM
[6]
  TGI: 25.1 µM
[7]
  TGI: 30.8 µM
[8]
  TGI: 29.3 µM
[9]
  TGI: 54.1 µM
[10]
  TGI: 47.5 µM
[11]
  TGI: 46.7 µM
[12]
  TGI: 32.2 µM
[13]
  TGI: 31.5 µM
[14]
  TGI: 36.4 µM
[15]
  TGI: 35.6 µM
[16]
  TGI: 66.1 µM
[17]
  TGI: 40.6 µM
[18]
  TGI: 37.9 µM
[19]
  TGI: 33.8 µM
[20]
  TGI: 29.1 µM
[21]
  TGI: 31.3 µM
[22]
  TGI: 25.3 µM
[23]
  TGI: 28.3 µM
[24]
  TGI: 23.9 µM
[25]
  TGI: 30.8 µM
[26]
  TGI: 37.6 µM
[27]
  TGI: 26.8 µM
[28]
  TGI: 39.8 µM
[29]
  TGI: 29.2 µM
[30]
  TGI: 30.4 µM
[31]
  TGI: 25.4 µM
[32]
  TGI: 33.1 µM
[33]
  TGI: 32 µM
[34]
  TGI: 35.6 µM
[35]
  TGI: 30.5 µM
[36]
  TGI: 29.8 µM
[37]
  TGI: 33 µM
[38]
  TGI: 6.4 µM
[39]
  TGI: 28.1 µM
[40]
  TGI: 40 µM
[41]
  TGI: 22.2 µM
[42]
  TGI: 36 µM
[43]
  TGI: 39.9 µM
[44]
  TGI: 26.9 µM
[45]
  TGI: 26.4 µM
[46]
  TGI: 25.9 µM
[47]
  TGI: 3.28 µM
[48]
  TGI: 64.2 µM
[49]
  TGI: 27.2 µM
[50]
  TGI: 21.6 µM
[51]
  TGI: 27.2 µM
[52]
  TGI: 27.5 µM
[53]
  TGI: 41.3 µM
[54]
  TGI: 33.2 µM
[55]
  TGI: 21 µM
[56]
  TGI: 26.3 µM

## O=[N+]([O-])c1ccc2c(c1)S(=O)c1ccccc1-2 (configuration not stated)
[1]
  TGI: > 100 µM
[2]
  TGI: > 100 µM
[3]
  TGI: > 100 µM
[4]
  TGI: > 100 µM
[5]
  TGI: > 100 µM
[6]
  TGI: > 100 µM
[7]
  TGI: > 100 µM
[8]
  TGI: > 100 µM
[9]
  TGI: > 100 µM
[10]
  TGI: > 100 µM
[11]
  TGI: > 100 µM
[12]
  TGI: > 100 µM
[13]
  TGI: > 100 µM
[57]
  TGI: > 100 µM
[15]
  TGI: > 100 µM
[16]
  TGI: > 100 µM
[17]
  TGI: > 100 µM
[18]
  TGI: > 100 µM
[19]
  TGI: > 100 µM
[20]
  TGI: > 100 µM
[21]
  TGI: > 100 µM
[22]
  TGI: > 100 µM
[24]
  TGI: > 100 µM
[25]
  TGI: > 100 µM
[27]
  TGI: > 100 µM
[28]
  TGI: > 100 µM
[29]
  TGI: > 100 µM
[30]
  TGI: > 100 µM
[31]
  TGI: > 100 µM
[32]
  TGI: > 100 µM
[33]
  TGI: > 100 µM
[34]
  TGI: > 100 µM
[35]
  TGI: > 100 µM
[36]
  TGI: > 100 µM
[37]
  TGI: > 100 µM
[38]
  TGI: > 100 µM
[39]
  TGI: > 100 µM
[40]
  TGI: > 100 µM
[41]
  TGI: > 100 µM
[42]
  TGI: > 100 µM
[43]
  TGI: > 100 µM
[44]
  TGI: > 100 µM
[58]
  TGI: > 100 µM
[45]
  TGI: > 100 µM
[46]
  TGI: > 100 µM
[47]
  TGI: > 100 µM
[59]
  TGI: > 100 µM
[48]
  TGI: > 100 µM
[49]
  TGI: > 100 µM
[50]
  TGI: > 100 µM
[51]
  TGI: > 100 µM
[52]
  TGI: > 100 µM
[53]
  TGI: > 100 µM
[54]
  TGI: > 100 µM
[55]
  TGI: > 100 µM
[56]
  TGI: > 100 µM
